Experiments:
[1] = system: Jurkat; assay: Antiproliferative assay (resazurin, 72 h); type: cell-based, human; conditions: mean ± SE, 72 h
Method: (§1) Colon adenocarcinoma (HT-29) and T-cell leukemia (Jurkat) cells were grown in RPMI-1640 medium (Gibco, Milano, Italy). Promyelocytic leukemia cells (HL-60), non-small cell lung carcinoma (A549), cervix carcinoma (HeLa) and breast adenocarcinoma (MDA-MB-231) cells were grown in DMEM medium (Gibco, Milano, Italy). Both media were supplemented with 115 units/mL of penicillin G (Gibco, Milano, Italy), 115 μg/mL of streptomycin (Invitrogen, Milano, Italy) and 10% fetal bovine serum (Invitrogen, Milano, Italy). All the cell lines used were purchased from the American Type Culture Collection (ATCC, Manassas, VA, USA). Stock solutions (10 mM) of the compounds were obtained by dissolving them in DMSO.
(§2) The cells were seeded in 96-well plates at the appropriate density for each cell line. After 24 h, the cells were treated by performing serial 5-fold dilutions of the tested compounds starting from a concentration of 10 μM. All experimental conditions were tested in triplicate for statistical analysis. The plates were incubated for 72 h at 37 °C in a humidified 5% CO2 atmosphere. At the end of the incubation period, 10 μL of 100 μg/mL resazurin solution was added to each well; then, the plate was re-incubated for 3–4 h. The fluorescence of the wells in each plate was monitored using a Spark 10 M spectrophotometer (Tecan Group Ltd., Mannedorf, Switzerland) with a 535 nm excitation wavelength and a 600 nm emission wavelength.

[2] = system: HT-29; assay: Antiproliferative assay (resazurin, 72 h); type: cell-based, human; conditions: mean ± SE, 72 h
Method: as §1, §2

[3] = system: MDA-MB-231; assay: Antiproliferative assay (resazurin, 72 h); type: cell-based, human; conditions: for IC50: mean ± SE, 72 h
Method: as §1, §2

[4] = system: HeLa; assay: Antiproliferative assay (resazurin, 72 h); type: cell-based, human
Method: as §1, §2

[5] = system: A549; assay: Antiproliferative assay (resazurin, 72 h); type: cell-based, human
Method: as §1, §2

[6] = Homo sapiens, MDA-MB-231, Table 1
[7] = Homo sapiens, HeLa, Table 1, mean ± SE
[8] = Homo sapiens, A549, Table 1, mean ± SE
[9] = Homo sapiens, MDA-MB-231, Table 2
[10] = Homo sapiens, HeLa, Table 2, mean ± SE
[11] = Homo sapiens, A549, Table 2, mean ± SE

Structure (SMILES) | melting point | IC50 ([1]; Homo sapiens, Jurkat, Table 1) | IC50 ([2]; Homo sapiens, HT-29, Table 1) | IC50 [3, 6] | IC50 [4, 7] | IC50 [5, 8] | fold more active than 7i ([3]; MDA-MB-231 cells) | IC50 ([1]; Homo sapiens, Jurkat, Table 2) | IC50 ([2]; Homo sapiens, HT-29, Table 2) | IC50 [3, 9] | IC50 [4, 10] | IC50 [5, 11] | IC50 ([1]; Table 2) | IC50 ([2]; Table 2) | IC50 ([3]; Table 2) | IC50 ([4]; Table 2, mean ± SE) | IC50 ([5]; Table 2, mean ± SE)
COc1cc(Nc2cc(C)nc3nc(NCCc4ccc(F)cc4)nn23)cc(OC)c1OC [Compound 7aa, N^2-(4-Fluorophenethyl)-5-methyl-N^7-(3,4,5-trimethoxyphenyl)-[1,2,4]triazolo [1,5-a]pyrimidine-2,7-diamine] | 150 to 152 °C | 9.61 ± 0.89 µM | 2.83 ± 0.22 µM | > 10 µM | 2.5 ± 0.27 µM | > 10 µM | – | – | – | – | – | – | – | – | – | – | –
COc1cc(Nc2cc(C)nc3nc(NCCc4ccc(Cl)cc4)nn23)cc(OC)c1OC [Compound 7ab, N^2-(4-Chlorophenethyl)-5-methyl-N^7-(3,4,5-trimethoxyphenyl)-[1,2,4]triazolo [1,5-a]pyrimidine-2,7-diamine] | 196 to 198 °C | 5.94 ± 0.5 µM | > 10 µM | > 10 µM | 5.81 ± 0.48 µM | > 10 µM | – | – | – | – | – | – | – | – | – | – | –
COc1ccc(CCNc2nc3nc(C)cc(Nc4cc(OC)c(OC)c(OC)c4)n3n2)cc1 [Compound 7ac, N^2-(4-Methoxyphenethyl)-5-methyl-N^7-(3,4,5-trimethoxyphenyl)-[1,2,4]triazolo [1,5-a]pyrimidine-2,7-diamine] | 214 to 216 °C | 9.59 ± 1.17 µM | 6.88 ± 0.49 µM | 1.65 ± 0.19 µM | 5.05 ± 0.63 µM | 8.88 ± 0.88 µM | – | – | – | – | – | – | – | – | – | – | –
COc1cc(Nc2cc(C)nc3nc(Nc4ccccc4)nn23)cc(OC)c1OC [Compound 7d, 5-Methyl-N2-phenyl-N7-(3,4,5-trimethoxyphenyl)-[1,2,4]triazolo [1,5-a]pyrimidine-2,7-diamine] | 241 °C | 0.59 ± 0.01 µM | 0.82 ± 0.07 µM | 1.43 ± 0.14 µM | 0.52 ± 0.06 µM | 2.3 ± 0.12 µM | – | – | – | – | – | – | – | – | – | – | –
COc1cc(Nc2cc(C)nc3nc(Nc4ccc(F)cc4)nn23)cc(OC)c1OC [Compound 7e, N2-(4-Fluorophenyl)-5-methyl-N7-(3,4,5-trimethoxyphenyl)-[1,2,4]triazolo [1,5-a]pyrimidine-2,7-diamine] | 247 °C | 0.82 ± 0.001 µM | 0.69 ± 0.06 µM | 0.71 ± 0.07 µM | 0.39 ± 0.02 µM | 1.02 ± 0.08 µM | – | – | – | – | – | – | – | – | – | – | –
COc1cc(Nc2cc(C)nc3nc(Nc4ccc(C)cc4)nn23)cc(OC)c1OC [Compound 7g, 5-Methyl-N2-(p-tolyl)-N7-(3,4,5-trimethoxyphenyl)-[1,2,4]triazolo [1,5-a]pyrimidine-2,7-diamine] | 234 °C | 0.85 ± 0.02 µM | 0.94 ± 0.11 µM | 1.51 ± 0.14 µM | 0.5 ± 0.04 µM | 1.55 ± 0.19 µM | – | – | – | – | – | – | – | – | – | – | –
COc1ccc(Nc2nc3nc(C)cc(Nc4cc(OC)c(OC)c(OC)c4)n3n2)cc1 [Compound 7h, N2-(4-Methoxyphenyl)-5-methyl-N7-(3,4,5-trimethoxyphenyl)-[1,2,4]triazolo [1,5-a]pyrimidine-2,7-diamine] | 215 °C | 1.01 ± 0.13 µM | 0.92 ± 0.09 µM | 1.17 ± 0.13 µM | 0.52 ± 0.03 µM | 3.76 ± 0.14 µM | – | – | – | – | – | – | – | – | – | – | –
COc1cc(Nc2cc(C)nc3nc(NCc4ccccc4)nn23)cc(OC)c1OC [Compound 7i, N^2-Benzyl-5-methyl-N^7-(3,4,5-trimethoxyphenyl)-[1,2,4]triazolo [1,5-a]pyrimidine-2,7-diamine] | 173 to 175 °C | 4.4 ± 0.38 µM | 3.53 ± 0.14 µM | 2.71 ± 0.31 µM | 3.2 ± 0.24 µM | 3.75 ± 0.26 µM | – | – | – | – | – | – | – | – | – | – | –
COc1cc(Nc2cc(C)nc3nc(NCc4ccncc4)nn23)cc(OC)c1OC [Compound 7j, 5-Methyl-N^2-(pyridin-4-ylmethyl)-N^7-(3,4,5-trimethoxyphenyl)-[1,2,4]triazolo [1,5-a]pyrimidine-2,7-diamine] | 184 to 186 °C | 9.64 ± 0.8 µM | 2.53 ± 0.25 µM | 0.059 ± 0.01 µM | 3.01 ± 0.3 µM | > 10 µM | 46 fold | – | – | – | – | – | – | – | – | – | –
COc1cc(Nc2cc(C)nc3nc(NCc4cccnc4)nn23)cc(OC)c1OC [Compound 7k, 5-Methyl-N^2-(pyridin-3-ylmethyl)-N^7-(3,4,5-trimethoxyphenyl)-[1,2,4]triazolo [1,5-a]pyrimidine-2,7-diamine] | 178 to 180 °C | 6.85 ± 0.63 µM | 3.57 ± 0.48 µM | 0.56 ± 0.067 µM | 2.98 ± 0.32 µM | 5.28 ± 0.65 µM | – | – | – | – | – | – | – | – | – | – | –
COc1cc(Nc2cc(C)nc3nc(NCc4cccc(F)c4)nn23)cc(OC)c1OC [Compound 7m, N^2-(3-Fluorobenzyl)-5-methyl-N^7-(3,4,5-trimethoxyphenyl)-[1,2,4]triazolo [1,5-a]pyrimidine-2,7-diamine] | 176 to 178 °C | 5.55 ± 0.48 µM | 1.53 ± 0.16 µM | 0.077 ± 0.01 µM | 0.93 ± 0.02 µM | 2.18 ± 0.31 µM | – | – | – | – | – | – | – | – | – | – | –
COc1cc(Nc2cc(C)nc3nc(NCc4cccc(C)c4)nn23)cc(OC)c1OC [Compound 7q, 5-Methyl-N^2-(3-methylbenzyl)-N^7-(3,4,5-trimethoxyphenyl)-[1,2,4]triazolo [1,5-a]pyrimidine-2,7-diamine] | 162 to 164 °C | 7.02 ± 0.62 µM | 3.46 ± 0.37 µM | 1.68 ± 0.18 µM | 1.61 ± 0.13 µM | 3.88 ± 0.28 µM | – | – | – | – | – | – | – | – | – | – | –
COc1cc(Nc2cc(C)nc3nc(NCc4ccccc4C)nn23)cc(OC)c1OC [Compound 7r, 5-Methyl-N^2-(2-methylbenzyl)-N^7-(3,4,5-trimethoxyphenyl)-[1,2,4]triazolo [1,5-a]pyrimidine-2,7-diamine] | 182 to 184 °C | 4.44 ± 0.47 µM | > 10 µM | 2.99 ± 0.18 µM | > 10 µM | 1.92 ± 0.09 µM | – | – | – | – | – | – | – | – | – | – | –
COc1cccc(CNc2nc3nc(C)cc(Nc4cc(OC)c(OC)c(OC)c4)n3n2)c1 [Compound 7t, N^2-(3-Methoxybenzyl)-5-methyl-N^7-(3,4,5-trimethoxyphenyl)-[1,2,4]triazolo [1,5-a]pyrimidine-2,7-diamine] | 150 to 152 °C | 1.65 ± 0.11 µM | 1.04 ± 0.08 µM | 1.78 ± 0.15 µM | 0.88 ± 0.09 µM | 1.65 ± 0.14 µM | – | – | – | – | – | – | – | – | – | – | –
COc1ccccc1CNc1nc2nc(C)cc(Nc3cc(OC)c(OC)c(OC)c3)n2n1 [Compound 7u, N^2-(2-Methoxybenzyl)-5-methyl-N^7-(3,4,5-trimethoxyphenyl)-[1,2,4]triazolo [1,5-a]pyrimidine-2,7-diamine] | 208 to 210 °C | > 10 µM | > 10 µM | 4.4 ± 0.26 µM | > 10 µM | > 10 µM | – | – | – | – | – | – | – | – | – | – | –
COc1ccc(CNc2nc3nc(C)cc(Nc4cc(OC)c(OC)c(OC)c4)n3n2)cc1OC [Compound 7v, N^2-(3,4-Dimethoxybenzyl)-5-methyl-N^7-(3,4,5-trimethoxyphenyl)-[1,2,4]triazolo [1,5-a]pyrimidine-2,7-diamine] | 194 to 196 °C | 1.22 ± 0.09 µM | > 10 µM | 1.22 ± 0.15 µM | 0.56 ± 0.07 µM | 1 ± 0.09 µM | – | – | – | – | – | – | – | – | – | – | –
COc1cc(Nc2cc(C)nc3nc(NCc4ccc(C#N)cc4)nn23)cc(OC)c1OC [Compound 7x, 4-(((5-Methyl-7-((3,4,5-trimethoxyphenyl)amino)-[1,2,4]triazolo [1,5-a]pyrimidin-2-yl)amino)methyl)benzonitrile] | 178 to 180 °C | > 10 µM | > 10 µM | 1.55 ± 0.11 µM | 9.01 ± 0.21 µM | > 10 µM | – | – | – | – | – | – | – | – | – | – | –
COc1cc(Nc2cc(C)nc3nc(NCCc4ccccc4)nn23)cc(OC)c1OC [Compound 7z, 5-Methyl-N^2-phenethyl-N^7-(3,4,5-trimethoxyphenyl)-[1,2,4]triazolo [1,5-a]pyrimidine-2,7-diamine] | 201 to 203 °C | 1.99 ± 0.24 µM | 1.89 ± 0.16 µM | 0.94 ± 0.09 µM | 0.86 ± 0.1 µM | 2.01 ± 0.16 µM | – | – | – | – | – | – | – | – | – | – | –
Cc1cc(Nc2ccc(F)c(Cl)c2)n2nc(NCc3ccc(Cl)cc3)nc2n1 [Compound 8a, N^7-(3-Chloro-4-fluorophenyl)-N^2-(4-chlorobenzyl)-5-methyl-[1,2,4]triazolo [1,5-a]pyrimidine-2,7-diamine] | 186 to 188 °C | – | – | – | – | – | – | 0.5 ± 0.31 µM | 0.34 ± 0.02 µM | 0.39 ± 0.04 µM | 0.19 ± 0.05 µM | 0.32 ± 0.06 µM | – | – | – | – | –
Cc1cc(Nc2cccc(Cl)c2)n2nc(NCc3ccc(Cl)cc3)nc2n1 [Compound 8b, N^7-(3-Chlorophenyl)-N^2-(4-chlorobenzyl)-5-methyl-[1,2,4]triazolo [1,5-a]pyrimidine-2,7-diamine] | 158 to 160 °C | – | – | – | – | – | – | 0.88 ± 0.5 µM | 1.64 ± 0.22 µM | 1.88 ± 0.08 µM | 0.81 ± 0.15 µM | 1.74 ± 0.13 µM | – | – | – | – | –
Cc1cc(Nc2cccc(Cl)c2)n2nc(NCCCc3ccccc3)nc2n1 [Compound 8t] | – | – | – | – | – | – | – | – | – | – | – | – | 0.14 ± 0.07 µM | 0.38 ± 0.03 µM | 1.32 ± 0.87 µM | 0.153 ± 0.01 µM | 0.26 ± 0.07 µM

From article PMC9230136 (Pharmaceutics, 2022)
